Laboratory results published in patent US5164381A, “Pharmacologically active 1,5-diaryl-3-substituted pyrazoles and method for synthesizing the same” (Ortho Pharmaceutical Corporation, priority 1991, dated 1992).
Read-outs that look alike come from different tables or passages of the source.

Experiments:
[1] = tested on: Lewis strain laboratory rats; assay: In vivo alleviation of inflammation: polyarthritis (adjuvant, Mycobacterium butyricum) in rats, inhibition of paw volume increase; settings: Rattus norvegicus, po
[2] = tested on: total cells in synovial fluid of dog knee joint; assay: Immune complex-induced synovitis in the dog knee joint: cellular infiltrate; type: in vivo, Mongrel dogs; settings: for cellular infiltrate (in words): 100 mg/kg orally; for cellular infiltrate (in words) / total cell number / cellular infiltration (in words): dog; for total cell number / cellular infiltration (in words): i.v. 25 mg/kg or orally
Description: (§1) The accuracy of the puncture was assured by the aspiration of clear, viscous synovial fluid (time 0 sample). The syringe was removed and immune complexes (see below) were injected into the synovial space. The synovial space was re-entered at various time intervals and synovial fluid was withdrawn. The volume of fluid was recorded and then added to 3.0 ml of 0.3% saline. A sample was removed and the number of cells present counted with the use of a hemocytometer and microscope to enumerate the total number of cells in the joint. The remaining sample was centrifuged at 1000×g for 10 minutes and the supernatant analyzed for prostaglandin E2 levels and leukotriene B4 levels.
(§2) To prepare the immune complex, two hundred milligrams of partially purified dog IgG was dissolved in 20 ml 0.9% sterile sodium chloride. The solution was clarified by centrifugation at 2230×G at 20° C. for 10 minutes. A 3 ml volume of the 10.0 mg/ml solution of dog IgG was mixed with 1 ml rabbit anti-dog IgG serum and incubated at room temperature for 20 minutes.
(§3) Four milliliters of saturated ammonium sulfate were added to the mixture to precipitate the complex and all free dog IgG and rabbit gamma globulin. The sample was then centrifuged (as above) and the pellet resuspended in 10 ml 0.9% sterile saline. One ml of this solution was injected into a knee joint.
(§4) Following the intra-articular administration of immune complexes synovial fluid samples were taken at 30 minutes, 1,2,4 and 24 hours, alternating knees for sampling (except at 24 hours when both knees were sampled).
(§5) The articular joint was entered and a zero hour synovial fluid sample was removed. 1 ml of immune complexes was injected into the synovial joint of both legs. […] Synovial fluid samples were taken at 30 minutes, 1, 2 and 4 hours. All samples were analyzed for total granulocyte count using a laser flow cytometer. Prostaglandin and leukotriene concentrations were determined with standard RIA techniques.

[3] = tested on: Prostaglandin E2; assay: Immune complex-induced synovitis in the dog knee joint: prostaglandin E2 levels; type: in vivo, Mongrel dogs; settings: for Prostaglandin E2 Levels: radioimmunoassay; for levels of PGE2 in the synovial fluid (in words): 100 mg/kg orally; for levels of PGE2 in the synovial fluid (in words) / PGE2 levels (in words): dog; for PGE2 levels (in words): i.v. 25 mg/kg or orally
Description: as §1, §2, §3, §4, §5

[4] = tested on: Leukotriene B4; assay: Immune complex-induced synovitis in the dog knee joint: leukotriene B4 levels; type: in vivo, Mongrel dogs; settings: for levels of LTB4 in the synovial fluid (in words): 100 mg/kg orally; for levels of LTB4 in the synovial fluid (in words) / LTB4 levels (in words): dog; for LTB4 levels (in words): i.v. 25 mg/kg or orally
Description: as §1, §2, §3, §4, §5

[5] = tested on: bronchospasm / LTB4; assay: Arachidonic acid-induced bronchospasm and LTB4 blood levels in anesthetized guinea pigs; type: in vivo; settings: administered orally, guinea pigs
Description: Intravenous administration of 10 mg/kg AA to anesthetized guinea pigs pretreated with indomethacin (10 mg/kg) and propranolol (0.1 mg/kg) results in a sustained bronchospasm which is associated with increased blood levels of LTB4. […] In the dog, intraarticular injection of rabbit anti-dog-dog IgG immune complexes into the knee joint results in an acute synovitis characterized by an influx of inflammatory cells into the joint space as well as an increase in synovial fluid levels of PGE2 and LTB4.

[6] = in vivo; settings: rat, in vivo
Source text: (§6) All NSAIDs are inhibitors of CO and their potency against this enzyme activity correlates well with clinical doses used in rheumatic diseases. There is also a correlation between CO inhibition (decreased PGE2) and the ability to induce gastric lesions in the fasted rat model. All NSAIDs induce at least some gastrointestinal lesions within their therapeutic range.

[7] = tested on: gastrointestinal tract; assay: Ulcerogenicity in rats (gastric lesions, fasted rat model); settings: rats
Source text: as §6

[8] = tested on: gastrointestinal; assay: Gastrointestinal side effects in dogs after one week; type: in vivo; settings: doses up to 2700 mg/kg
Source text: as §6

[9] = tested on: cyclooxygenase (CO); assay: Inhibition of cyclooxygenase (CO)
[10] = tested on: 5-lipoxygenase (5-LO); assay: Inhibition of 5-lipoxygenase (5-LO)
[11] = tested on: cyclooxygenase (CO); settings: cited from earlier work
[12] = tested on: gastrointestinal tract; settings: suboptimal antiinflammatory doses; cited from earlier work

Structure (SMILES): COc1ccc(-n2nc(CCC(=O)N(C)O)cc2-c2ccc(Cl)cc2)cc1 [Compound 3, 3-[5-(4-Chlorophenyl)-1-(4-methoxyphenyl)-3-pyrazolyl]-N-hydroxy-N-methylpropanamide]
- ED50 ([1]; adjuvant rat, read-out: dose which inhibits the inflammatory response of the adjuvant rat by 50 percent (ED50)): 3 mg/kg
- ED50 ([1]; rat, read-out: ED50 (effective dose to obtain a 50% inhibition of inflammation)): 4.1 mg/kg
- Cellular Infiltrate Total Cells (× 10^6) ([2]; 25 mg/kg p.o., 0.5 HR): 0.12 ± 0.04 × 10^6
- Cellular Infiltrate Total Cells (× 10^6) ([2]; 25 mg/kg p.o., 1 HR): 0.39 ± 0.19 × 10^6
- % I (inhibition) of total cells ([2]; 25 mg/kg p.o., 2 HR): 7.4%
- Cellular Infiltrate Total Cells (× 10^6) ([2]; 25 mg/kg p.o., 2 HR): 5.74 ± 2.5 × 10^6
- % I (inhibition) of total cells ([2]; 25 mg/kg p.o., 4 HR): 6.5%
- Cellular Infiltrate Total Cells (× 10^6) ([2]; 25 mg/kg p.o., 4 HR): 46.3 ± 27.9 × 10^6
- cellular infiltrate (in words) [2]: reduces the cellular infiltrate
- Cellular Infiltrate Total Cells (× 10^6) ([2]; 100 mg/kg p.o., 0.5 HR): 0.26 ± 0.23 × 10^6
- Cellular Infiltrate Total Cells (× 10^6) ([2]; 100 mg/kg p.o., 1 HR): 0.13 ± 0.07 × 10^6
- % I (inhibition) of total cells ([2]; 100 mg/kg p.o., 2 HR): 78%
- Cellular Infiltrate Total Cells (× 10^6) ([2]; 100 mg/kg p.o., 2 HR): 1.35 ± 0.55 × 10^6
- % I (inhibition) of total cells ([2]; 100 mg/kg p.o., 4 HR): 55.2%
- Cellular Infiltrate Total Cells (× 10^6) ([2]; 100 mg/kg p.o., 4 HR): 22.2 ± 6.6 × 10^6
- total cell number / cellular infiltration (in words) [2]: significantly inhibits
- Prostaglandin E2 Levels ([3]; 25 mg/kg p.o., 1 Hr): 2.34 ± 1 ng/mL
- % I (inhibition) of prostaglandin E2 levels ([3]; 25 mg/kg p.o., 2 Hr): 38.2%
- Prostaglandin E2 Levels ([3]; 25 mg/kg p.o., 2 Hr): 2.96 ± 0.92 ng/mL
- % I (inhibition) of prostaglandin E2 levels ([3]; 25 mg/kg p.o., 4 Hr): 44.6%
- Prostaglandin E2 Levels ([3]; 25 mg/kg p.o., 4 Hr): 2.27 ± 0.76 ng/mL
- levels of PGE2 in the synovial fluid (in words) [3]: reduces
- Prostaglandin E2 Levels ([3]; 100 mg/kg p.o., 0.5 Hr): 1.8 ± 1.29 ng/mL
- Prostaglandin E2 Levels ([3]; 100 mg/kg p.o., 1 Hr): 1.5 ± 1.05 ng/mL
- % I (inhibition) of prostaglandin E2 levels ([3]; 100 mg/kg p.o., 2 Hr): 97.9%
- Prostaglandin E2 Levels ([3]; 100 mg/kg p.o., 2 Hr): 0.1 ± 0.08 ng/mL
- % I (inhibition) of prostaglandin E2 levels ([3]; 100 mg/kg p.o., 4 Hr): 42.4%
- Prostaglandin E2 Levels ([3]; 100 mg/kg p.o., 4 Hr): 2.36 ± 0.53 ng/mL
- PGE2 levels (in words) [3]: significantly inhibits
- Leukotriene B4 ([4]; 25 mg/kg p.o., 1 Hr): 3.00 ± 1.2 ng/ml Synovial Fluid
- Leukotriene B4 ([4]; 25 mg/kg p.o., 2 Hr): 4.60 ± 2.10 ng/ml Synovial Fluid
- Leukotriene B4 ([4]; 25 mg/kg p.o., 4 Hr): 1.20 ± 0.6 ng/ml Synovial Fluid
- levels of LTB4 in the synovial fluid (in words) [4]: reduces
- % I (inhibition) of leukotriene B4 ([4]; 100 mg/kg p.o., 0.5 Hr): 25%
- Leukotriene B4 ([4]; 100 mg/kg p.o., 0.5 Hr): 0.93 ± 0.26 ng/ml Synovial Fluid
- % I (inhibition) of leukotriene B4 ([4]; 100 mg/kg p.o., 1 Hr): 69%
- Leukotriene B4 ([4]; 100 mg/kg p.o., 1 Hr): 0.80 ± 0.09 ng/ml Synovial Fluid
- % I (inhibition) of leukotriene B4 ([4]; 100 mg/kg p.o., 2 Hr): 39%
- Leukotriene B4 ([4]; 100 mg/kg p.o., 2 Hr): 2.46 ± 0.94 ng/ml Synovial Fluid
- % I (inhibition) of leukotriene B4 ([4]; 100 mg/kg p.o., 4 Hr): 37%
- Leukotriene B4 ([4]; 100 mg/kg p.o., 4 Hr): 0.88 ± 0.23 ng/ml Synovial Fluid
- inhibition of leukotriene production (in words) ([4]; administered orally, dogs): effective inhibitor of leukotriene production
- LTB4 levels (in words) [4]: significantly inhibits
- inhibition of leukotriene production (in words) [5]: effective inhibitor of leukotriene production
- TD50 [6]: 173 mg/kg
- selectivity ratio [6]: 58
- ulcerogenicity in the gastrointestinal tract (in words) [7]: reduced ulcerogenic activity
- ulcerogenicity in the gastrointestinal tract (in words) ([7]; listed as compound 3): lack of ulcerogenicity in the gastrointestinal tract
- significant gastrointestinal side effects (in words) [8]: no significant gastrointestinal side effects
- inhibition of cyclooxygenase (CO) (in words) [9]: inhibits both the cyclooxygenase (CO) and 5-lipoxygenase (5-LO) enzymes
- inhibition of 5-lipoxygenase (5-LO) (in words) [10]: inhibits both the cyclooxygenase (CO) and 5-lipoxygenase (5-LO) enzymes

Structure (SMILES): COc1ccc2cc([C@H](C)C(=O)O)ccc2c1 [Naproxen, reference compound]
- cellular infiltrate (in words) [2]: inhibited the cell infiltration
- Cellular Infiltrate Total Cells (× 10^6) ([2]; 100 mg/kg p.o., 0.5 HR): 0.32 ± 0.11 × 10^6
- Cellular Infiltrate Total Cells (× 10^6) ([2]; 100 mg/kg p.o., 1 HR): 0.02 ± 0.02 × 10^6
- % I (inhibition) of total cells ([2]; 100 mg/kg p.o., 2 HR): 36.6%
- Cellular Infiltrate Total Cells (× 10^6) ([2]; 100 mg/kg p.o., 2 HR): 2.69 ± 0.63 × 10^6
- % I (inhibition) of total cells ([2]; 100 mg/kg p.o., 4 HR): 44.2%
- Cellular Infiltrate Total Cells (× 10^6) ([2]; 100 mg/kg p.o., 4 HR): 27.6 ± 24 × 10^6
- total cell number / cellular infiltration (in words) [2]: inhibits
- levels of PGE2 in the synovial fluid (in words) [3]: inhibited
- Prostaglandin E2 Levels ([3]; 100 mg/kg p.o., 0.5 Hr): 0.83 ± 0.24 ng/mL
- Prostaglandin E2 Levels ([3]; 100 mg/kg p.o., 1 Hr): 1.67 ± 0.73 ng/mL
- % I (inhibition) of prostaglandin E2 levels ([3]; 100 mg/kg p.o., 2 Hr): 62.0%
- Prostaglandin E2 Levels ([3]; 100 mg/kg p.o., 2 Hr): 1.88 ± 0.86 ng/mL
- % I (inhibition) of prostaglandin E2 levels ([3]; 100 mg/kg p.o., 4 Hr): 44.9%
- Prostaglandin E2 Levels ([3]; 100 mg/kg p.o., 4 Hr): 2.2 ± 0.97 ng/mL
- PGE2 levels (in words) [3]: inhibits PGE 2 levels
- levels of LTB4 in the synovial fluid (in words) [4]: increased the LTB4 levels
- % I (inhibition) of leukotriene B4 ([4]; 100 mg/kg p.o., 0.5 Hr): 10.5%
- Leukotriene B4 ([4]; 100 mg/kg p.o., 0.5 Hr): 1.11 ± 0.36 ng/ml Synovial Fluid
- % I (inhibition) of leukotriene B4 ([4]; 100 mg/kg p.o., 1 Hr): -26.7%
- Leukotriene B4 ([4]; 100 mg/kg p.o., 1 Hr): 3.27 ± 1.53 ng/ml Synovial Fluid
- % I (inhibition) of leukotriene B4 ([4]; 100 mg/kg p.o., 2 Hr): -47.4%
- Leukotriene B4 ([4]; 100 mg/kg p.o., 2 Hr): 5.94 ± 1.33 ng/ml Synovial Fluid
- % I (inhibition) of leukotriene B4 ([4]; 100 mg/kg p.o., 4 Hr): -140%
- Leukotriene B4 ([4]; 100 mg/kg p.o., 4 Hr): 3.36 ± 1.28 ng/ml Synovial Fluid
- LTB4 levels (in words) [4]: does not decrease
- inhibition of cyclooxygenase enzyme by NSAIDs (in words) [11]: only inhibit the cyclooxygenase enzyme
- ulcers in rats (in words) [12]: significant ulcers
